Earlier results as cited in publication PMC7797289 (Drug Design, Development and Therapy, 2021).

How the values were obtained:
uPA = conditions: read-out: Ki (inhibitory constant); uPA inhibitor
lung cancer = lung cancer animal model
breast cancer metastasis = conditions: in vivo test

Ki (uPA) [µM]	Structure (SMILES)	anti-tumor efficacy (lung cancer)	breast cancer metastasis (breast cancer metastasis)
0.02	N=C(N)c1ccc(CNC(=O)[C@H](CO)NC(=O)[C@@H](CO)NS(=O)(=O)Cc2ccccc2)cc1 [CJ-463, benzylsulfonyl-D-Ser-Ser-4- amidinobenzylamide]	good anti-tumor efficacy	–
–	CCCNC(=O)[C@H]1O[C@@H]1C(=O)N[C@H](C(=O)N1CCC[C@H]1C(=O)O)[C@@H](C)CC [CA-074]	–	reduced breast cancer metastasis
–	CN(C)C(=O)[C@H](Cc1ccccc1)NC(=O)[C@H]1O[C@@H]1C(=O)NCCc1ccccn1 [CLIK-148]	–	reduced breast cancer metastasis
